We go through 90 compounds from a melting point compilation (Tetko et al.; mined from patent text by program, amines drawn as free bases though some values may be those of a salt).

Usually melting point stands for the temperature, or range, at which the solid turns liquid.

For `CCOc1cc2nc(NC)nc(-c3cccc(-c4cccnc4SC)c3)c2cc1OCC`, the melting point was 105 to 107 °C.
In the case of `O=C1CCCN1c1cccc(Cc2n[nH]c(=O)c3ccccc23)c1` it was 206 to 207 °C.
In the case of `CCOC(=O)/C=C/c1c(-c2ccccc2)c2c3ccccc3ccn2c1C(C)C` it was 145 to 146 °C; in that of `O=c1[nH]c2ccc(CCCN3CCC(Cc4ccc(F)cc4)CC3)cc2o1`, 105 to 107 °C.
The compound `Cc1ccc(S(=O)(=O)OCCC2C3=C(CC=CC3)CCc3ccccc32)cc1` (stereo not given) came in with a melting point of 150 to 151 °C.
In the case of `CC(C)NCc1cccc(Cn2ccc(OCc3ccc(F)cc3F)c(Br)c2=O)c1` it was 109 to 110 °C.
As to `COc1cc(Nc2c(C#N)cnc3cc(-n4cccc4)c(OC)cc23)c(Cl)cc1Cl`, the melting point was 229 to 230 °C.
Take `CC(=O)NCc1ccc(/C=C/C(c2cc(Cl)cc(Cl)c2)C(F)(F)F)cc1Cl` (stereo not given): the melting point is 127 to 128 °C.
In the case of `O=C(O)c1ccnc(Br)c1` it was 214 °C.
`C=CCOc1cc([N+](=O)[O-])ccc1Cl` returned a melting point of 58 to 59.5 °C.
In the case of `c1ccc(CN2CCN(Cc3c[nH]c4ncccc34)CC2)cc1` it was 153 °C.
Compound `OC(c1ccccc1)(c1ccccc1-c1ccccc1)C1CCNCC1` (stereo not given) yielded a melting point of 185 to 186 °C.
In the case of `Cc1cc(OC(C)c2ccccc2)ccc1C(C)N(O)C(N)=O` (stereo not given) it was 157 to 158 °C.
In the case of `C=CCN(CC=C)C(=O)Nc1cc(C)c(S(=O)(=O)C[N+](=O)[O-])c(C)c1` it was 127 to 129 °C; in that of `O=C(O)C1Cc2ccccc2CN1C(=O)CCS` (stereo not given), 55 to 58 °C; in that of `CCC(CC)c1ccc(Cl)c2nc3n(c12)CCCCN3c1ccc(OC)nc1OC`, 85 to 88 °C.
For `COc1cc(F)cc2c1-c1c(F)cc(F)cc1C2=O`, the melting point fell in the range of 164 to 166 °C.
Take `CN1C(=O)C(c2cccc(Br)c2)(c2cnn(CC(F)(F)F)c2)N=C1N` (stereo not given): the melting point fell in the range of 80 to 82 °C.
In the case of `CNCC(=O)N1Cc2cccc3c2N(CC3)c2ccccc21` it was 128 to 130 °C.
`CC1=C2CCc3cc(Cl)ccc3N2CCC1=O` had a melting point of 112 to 114 °C.
As to `CC(C)(C)OC(=O)[C@H]1C[C@H](C(=O)Nc2ccccc2)[C@@H](c2ccccc2F)N1C(=O)CNC(=O)Nc1cccc(C(=O)O)c1` (racemic), the melting point came out at 170 °C.
For `COc1ccc2c(c1)C(C(=O)N(Cc1ccc(NCc3ccccc3)cc1)c1ccc(C(C)C)cc1)CCC2` (stereo not given), the melting point lay within 135 to 138 °C.
`CC(=CC(=O)O)C[N+](=O)[O-]` came in with a melting point of 85 °C.
In the case of `CCc1ccc2[nH]c(C(=O)OC)cc2c1` it was 112 °C; in that of `Cc1nn(-c2ccccn2)cc1COc1ccc(CC(=O)O)cc1`, 161 to 162 °C; in that of `COc1ccc2oc(C(=O)CBr)cc2c1`, 86 to 87 °C.
In the case of `CS(=O)(=O)Nc1ccc(C(=O)NC(=O)N2CCC(Cc3ccccc3)CC2)cc1` it was 97.5 to 100 °C; in that of `CCCCCCCCCCCCCCCCOC(=O)Nc1ccc(NC(=O)NS(=O)(=O)c2ccc3ccccc3c2)cc1`, 183 °C.
`COc1cc(C)c(C(=O)CCCCCCCCCCO)c(O)c1OC` returned a melting point of 81 °C.
In the case of `CN1CCN(C(=O)C(CC(=O)N2Cc3cscc3C2)Cc2ccccc2)CC1` (stereo not given) it was 156 to 158 °C; in that of `CN1C(=O)c2cccc(SCc3ccccc3)c2C1=O`, 180 to 187 °C; in that of `COC(=O)C1(n2c(=O)[nH]c3ccccc3c2=O)CCCCC1`, 145 to 147 °C.
In the case of `CNS(=O)(=O)Oc1ccccc1` it was 43 to 45 °C; in that of `N#Cc1ccc(-c2ccc(O)c(C=O)c2)cc1`, 144 °C.
Regarding `CCOC(=O)c1ccc2c(c1)nc(-c1c(Cl)cccc1Cl)n2C`, the melting point is 164 to 166 °C.
`COc1ccc(NC(=O)c2ccc([N+](=O)[O-])cc2NC(=O)c2ccc(C(C)(C)C)cc2)cc1`: the melting point was 221 °C.
In the case of `CC(C)CC(NCC(=O)NOCc1ccccc1)C(=O)NC(Cc1ccc2ccccc2c1)C(=O)NC(C)C(N)=O` (stereo not given) it was 205 to 212 °C.
In the case of `CC(C)c1ccc(C2COc3cc(O)c(O)cc3C2)cc1` (stereo not given) it was 129 to 131 °C; in that of `Cc1cc(O)n2nc(CBr)nc2n1`, 217 to 222 °C; in that of `CC(=O)c1cc(Cl)c(N)c(I)c1F`, 117 to 119 °C.
Regarding `COC(=O)C(=CO)N(C)C(=O)C=Cc1ccccc1Cl`, the melting point was 129 to 130 °C.
`CC(=O)NCc1ccc(CN2CCN(c3nc(Cl)cc(Cl)n3)CC2)cc1` returned a melting point of 139 to 140 °C.
In the case of `CC(C)CSCc1c(-c2ccc(S(C)(=O)=O)cc2)cnn(-c2ccc(F)cc2)c1=O`, the melting point was 45 to 60 °C.
For the compound `O=C(Nc1cc(Cl)cc(Cl)c1)c1cc(I)ccc1O`, the melting point was in the range of 244 to 245 °C.
In the case of `COCCNC(=O)c1cccc(-c2ccc(F)c3cc(Cc4cccc(S(C)(=O)=O)c4)sc23)c1` it was 158 to 159 °C.
In the case of `CCn1c(=O)c2ccc(C(=O)O)cc2n(Cc2ccc(Cl)cc2Cl)c1=O` it was 238 to 240 °C; in that of `CSc1cccc(NC(C)=N)c1`, 134 to 135 °C; in that of `COc1ccc(CCN(C)C)c2nn[nH]c12`, 176 to 180 °C.
In the case of `O=c1cc(-c2ccncn2)nc2n1Cc1ccccc1N2` it was 290 to 292 °C; in that of `CCn1c2ccccc2c2cc(I)ccc21`, 78 to 80 °C; in that of `CC#CCOc1ccc(S(=O)(=O)N(Cc2cccnc2)C(CSCc2ccccc2)C(=O)NO)cc1` (stereo not given), 74 to 78 °C.
Take `CCOc1ccc(-c2ccc(=O)[nH]n2)cc1OC`: the melting point was found to be 172 °C.
`Cc1c2c(c(C(O)c3ccc(C(C)C)cc3)c(C)c1NC(=O)OC(C)(C)C)OC(C)C2` (stereo not given) displayed a melting point of 141 to 142 °C.
Regarding `CC(=O)c1ccc2oc3ccc(C(C)=O)cc3c(=O)c2c1`, the melting point is 226 to 228 °C.
In the case of `CCOC(=O)CCCNc1cccc(/C=C/c2nc3ccccc3s2)c1` it was 68 to 69 °C; in that of `CCN(CC)C(=O)c1cc2ccccc2[nH]1`, 108 to 110 °C; in that of `COCN1C(C)=C(C(=O)OC)[C@H](c2cccc([N+](=O)[O-])c2)C(C(=O)OCOC(=O)C(C)(C)C)=C1C`, 113 to 114 °C.
Compound `O=C(O)C1(Cc2ccccc2)CCN(Cc2ccccc2)CC1` came in with a melting point of 262 °C.
In the case of `O=C(Nc1ccc(-n2nc(C(F)(F)F)cc2C(F)(F)F)cc1)c1ccc(F)cc1Cl` it was 155 to 157 °C; in that of `O=C1C(CBr)=C(CBr)C(=O)C(CBr)=C1CBr`, 169 to 172 °C; in that of `Cc1cc2c(-c3ccccc3)c(CN)n(C)c(=O)c2cc1C`, 163 to 165 °C.
For `CCCCc1nc2c(N)nc3ccccc3c2n1CCCCCCCCNC(=O)Nc1ccccc1`, the melting point is 153 to 155 °C.
In the case of `CCN(CC)C(=O)Nc1ccc(S(=O)(=O)n2c(=O)n(C3CCCCC3)c3cc(Cl)ccc32)c(OC)c1` it was 250 °C; in that of `O=C1NC(=O)C(c2ccc(Br)s2)O1` (stereo not given), 139 to 140 °C.
In the case of `Cc1cc(=O)n2cccc(OCC=Cc3ccccc3)c2n1` it was 154 to 155 °C.
In the case of `Cn1cnc(-c2ccccc2)c1-c1ccncc1` it was 161 to 162 °C.
As to `COc1cc2nc(N3CCNCC3)nc(N)c2cc1OC`, the melting point lay within 224 to 228 °C.
Compound `CCCCN1C(=O)CC(Sc2cc(C(C)(C)C)c(O)c(C(C)(C)C)c2)C1=O` (stereo not given) displayed a melting point of 80 to 85 °C.
In the case of `CC(=O)OC/C(=C(\C(=O)N(C)CC(C)(C)SN=O)c1ccc(F)cc1)c1ccc(S(C)(=O)=O)cc1` it was 37 to 38 °C.
`CNC(=O)ON=C1SCC(=O)N1CCOC` yielded a melting point of 153 to 155 °C.
In the case of `COc1cc(C)cc(-c2nn(CC#N)cc2-c2cc(NC[C@H](C)O)nc(-c3cccnc3)n2)c1` it was 200 °C.
In the case of `CC(C)c1nc(COCc2ccccc2)n(Cc2ccccc2)c1Sc1cccc([N+](=O)[O-])c1` it was 152 to 155 °C; in that of `CC(=O)[C@H]1C[C@@H](C(N)=S)N(C(=O)OCc2ccc([N+](=O)[O-])cc2)C1`, 168 to 170 °C.
In the case of `C=CCOc1ccc(C=CC(=O)c2c(OC)cc(OC)cc2OC(=O)CC)cc1` it was 83.5 °C; in that of `O=c1ccc2c(-n3cnc([N+](=O)[O-])c3)nccc2[nH]1`, 298 to 300 °C; in that of `CCCC=C(OC(C)=O)C(=Cc1ccc(Cl)cc1)n1cncn1`, 112 to 113 °C.
Compound `O=C(O)CCCC1Cc2ccccc2C1` gave a melting point of 75 °C.
In the case of `O=C1Nc2ccc(-c3ccc(C=NO)c(F)c3)cc2C12CCCCC2` it was 240 to 242 °C; in that of `CCOC(=O)C(S)CC(=O)c1ccc(Oc2ccccc2)cc1` (stereo not given), 46 to 47.5 °C; in that of `Cc1cccc2c(Nc3cccc(OCCCCN(CCCl)CCCl)c3)c3cccc(C(=O)NCCN(C)C)c3nc12`, 131 to 132 °C.
Compound `Cc1ccc(C(=O)NC2CCN(CCCCl)CC2)cc1` gave a melting point of 150 to 152 °C.
In the case of `CCc1c(-c2ccc(O)cc2)c2ccc3ccc(COCCN4CCCCC4)c1n32` it was 68 to 75 °C; in that of `CCOC(=O)c1cc(=NS(=O)(=O)c2ccccc2)c2c(Cl)cc(Cl)cc2[nH]1`, 184 to 185 °C.
In the case of `COC(=O)c1ccc(SC(Cn2ccnc2)c2ccccc2C(F)(F)F)cc1` (stereo not given) it was 121 to 126 °C.
In the case of `O=C(O)COCCCCN(c1cnc(-c2ccccc2)c(-c2ccccc2)n1)C1CCCC1` it was 101 to 103 °C.
In the case of `Cc1c(SCCCSc2ccncc2)ccnc1CSc1ccncc1`, the melting point lay in the range of 116 to 118 °C.
In the case of `CC(=O)c1ccc(-c2ncc[nH]2)cc1` it was 213 to 216 °C.
In the case of `CC(C)(C)OC(=O)C1C(C=CC(=O)O)C1(C)C` (stereo not given) it was 94 °C; in that of `CCc1cccc(N=C(C)Nc2cccc(CC)c2)c1`, 86 to 87 °C.
As to `CCOc1cc(-c2cc(C(F)F)n3ncc(C(=O)Nc4cccc(S(=O)(=O)NC(C)(C)CO)c4)c3n2)ccc1C(F)(F)F`, the melting point was found to be 250 °C.
